A short description of the assay: Antagonist activity at human CXCR3 expressed in mouse L1.2 cells assessed as inhibition of IP10-induced chemotaxis after 4 hrs.

In the case of `O=C(NCC1CC1)c1ccc(CN(Cc2cccc(Cl)c2)S(=O)(=O)c2ccc(Cl)cc2)cc1` [4-((4-chloro-N-(3-chlorobenzyl)phenylsulfonamido)methyl)-N-(cyclopropylmethyl)benzamide], the IC50 is 940 nM. As for `O=C(NCc1cccc(Cl)c1)c1ccc(CN(Cc2ccccn2)S(=O)(=O)c2ccc(Cl)cc2)cc1` [4-((4-chloro-N-(pyridin-2-ylmethyl)phenylsulfonamido)methyl)-N-(3-chlorobenzyl)benzamide], the IC50 was 85 nM.

For the compound `N#Cc1ccc(S(=O)(=O)N(Cc2ccc(C(=O)O)c(F)c2)Cc2ccccn2)cc1` [4-((4-cyano-N-(pyridin-2-ylmethyl)phenylsulfonamido)methyl)-2-fluorobenzoicacid], the IC50 worked out at 1080 nM. For `O=C(NCC1CC1)c1ccc(CN(Cc2ccccc2)S(=O)(=O)c2ccc(OC(F)(F)F)cc2)cc1` [4-((N-benzyl-4-(trifluoromethoxy)phenylsulfonamido)methyl)-N-(cyclopropylmethyl)benzamide] the value was 5580 nM; for `O=C(NCC1CC1)c1ccc(CN(Cc2ccccc2)S(=O)(=O)c2ccc(Cl)cc2)cc1` [4-((N-benzyl-4-chlorophenylsulfonamido)methyl)-N-(cyclopropylmethyl)benzamide], 1980 nM. For the compound `O=C(O)c1ccc(CN(Cc2ccccc2)S(=O)(=O)c2ccc(Cl)cc2)cc1` [4-((N-benzyl-4-chlorophenylsulfonamido)methyl)benzoicacid], the IC50 is 2940 nM. `CCOc1ccc(S(=O)(=O)N(Cc2ccccc2)Cc2ccc(C(=O)NCC3CC3)cc2)cc1` [4-((N-benzyl-4-ethoxyphenylsulfonamido)methyl)-N-(cyclopropylmethyl)benzamide]: the IC50 is 673 nM. Turning to `COc1ccc(S(=O)(=O)N(Cc2ccccc2)Cc2ccc(C(=O)NCC3CC3)cc2)cc1` [4-((N-benzyl-4-methoxyphenylsulfonamido)methyl)-N-(cyclopropylmethyl)benzamide], the IC50 is 697 nM.

`COc1ccc(S(=O)(=O)N(Cc2ccccc2)Cc2ccc(C(=O)O)cc2)cc1` [4-((N-benzyl-4-methoxyphenylsulfonamido)methyl)benzoicacid]: the IC50 was 6440 nM.

Take `O=S(=O)(c1ccc(Cl)cc1)N(Cc1ccc(-c2nnn[nH]2)c(F)c1)Cc1ccccn1` [4-chloro-N-(3-fluoro-4-(1H-tetrazol-5-yl)benzyl)-N-(pyridin-2-ylmethyl)benzenesulfonamide]: the IC50 was 440 nM. With `O=S(=O)(c1ccc(Cl)cc1)N(CCc1cc2ccccc2cn1)Cc1ccc(-c2nnn[nH]2)cc1` [N-(4-(1H-tetrazol-5-yl)benzyl)-4-chloro-N-(2-(isoquinolin-3-yl)ethyl)benzenesulfonamide], the IC50 stood at 911 nM.

As for `CCOc1ccc(S(=O)(=O)N(Cc2ccc(-c3nnn[nH]3)cc2)Cc2ccccn2)cc1` [N-(4-(1H-tetrazol-5-yl)benzyl)-4-ethoxy-N-(pyridin-2-ylmethyl)benzenesulfonamide], the IC50 came out at 540 nM. In the case of `CC(C)(C)c1nc(CCN(Cc2ccc(-c3nnn[nH]3)cc2)S(=O)(=O)c2ccc(Cl)cc2)no1` [N-(4-(1H-tetrazol-5-yl)benzyl)-N-(2-(5-tert-butyl-1,2,4-oxadiazol-3-yl)ethyl)-4-chlorobenzenesulfonamide], the IC50 worked out at 254 nM. In the case of `COc1ccc(S(=O)(=O)N(Cc2ccc(C(=O)NCC3CC3)cc2)Cc2cccnc2)cc1` [N-(cyclopropylmethyl)-4-((4-methoxy-N-(pyridin-3-ylmethyl)phenylsulfonamido)methyl)benzamide], the IC50 is 1150 nM. `COc1ccc(S(=O)(=O)N(Cc2ccccc2)Cc2ccc(C(=O)NCc3ccccc3)cc2)cc1` [N-benzyl-4-((N-benzyl-4-methoxyphenylsulfonamido)methyl)benzamide]: the IC50 was found to be 347 nM.

What is called IC50 is the concentration needed to halve the response being measured.

The record behind these values is BindingDB's records for doi:10.1016/j.bmcl.2010.04.113 (Merck Serono, 2010).
